Where two headings read alike, the source gives them in different places.
Key:
fibromyalgia patients = conditions: 10 to 40 mg over a 12 week period; cited from earlier work
subjects with tinnitus = tested on: subjects with tinnitus
Source text: Four selected outcome variables were used in this preliminary analysis: Global improvement (GI), Tinnitus Handicap Inventory (THI) and Tinnitus Impairment Questionnaire (TBF 12) questionnaires and Minimum Masking Levels (MML). The changes on the outcome variables were obtained by subtracting week 12's scores from the screening scores. The presence of a negative result means a decrease on values.
In Table 2 the changes on outcome variables are listed by Global Improvement (GI) classification, as follows: GI 1=much better; 2=better; 3=slightly better; 4=no change; 5=slightly worse; 6=worse; 7=much worse; THI: Tinnitus Handicap Inventory, TBF 12: Tinnitus Impairment Questionnaire; MML: minimal masking levels, measured in dB HL (Hearing Level).
Four different criteria were established to determine whether a subject responded or not to treatment (see Table 3).

[1] = Criteria 1: improvement on GI, 15 subjects
[2] = Criteria 2: Criteria 1 + decrease on THI
[3] = Criteria 3: Criteria 2 + decrease on TBF 12
[4] = Criteria 4: Criteria 3 + decrease on MML

SMILES: CN(C)CCC=C1c2ccccc2C=Cc2ccccc21 [Cyclobenzaprine]
- Quality of sleep and pain score (fibromyalgia patients): significantly improved
- Total number of tender points and muscle tightness (fibromyalgia patients): reduction
- Most frequent side effects (subjects with tinnitus; 15 subjects, oral 15-30 mg/day): dry mouth and constipation
- Non responders % (subjects with tinnitus; Criteria 1: improvement on GI): 26.7%
- Non responders n (subjects with tinnitus; Criteria 1: improvement on GI): 4
- Responders % (subjects with tinnitus; [1]): 73.3%
- Responders n (subjects with tinnitus; [1]): 11
- Non responders % (subjects with tinnitus; [2]): 26.4%
- Non responders n (subjects with tinnitus; [2]): 4
- Responders % (subjects with tinnitus; [2]): 73.3%
- Responders n (subjects with tinnitus; [2]): 11
- Non responders % (subjects with tinnitus; [3]): 33.3%
- Non responders n (subjects with tinnitus; [3]): 5
- Responders % (subjects with tinnitus; [3]): 66.6%
- Responders n (subjects with tinnitus; [3]): 10
- Non responders % (subjects with tinnitus; [4]): 46.7%
- Non responders n (subjects with tinnitus; [4]): 7
- Responders % (subjects with tinnitus; [4]): 53.3%
- Responders n (subjects with tinnitus; [4]): 8
- Subjects Better or Much Better on GI (subjects with tinnitus; FIG. 1, 15 subjects): 8 subjects
- Tolerability (subjects with tinnitus; common side effects like constipation and dry mouth): tolerated well by most subjects
- Sleep and muscle relaxation (subjects with tinnitus; described by many patients): Improvement on sleep and muscle relaxation
- Subjects with changes on tinnitus pitch (subjects with tinnitus; human, in vivo): 5 out of 15 subjects
- Side effect that led one subject to interrupt the study (subjects with tinnitus; one subject, week 8): severe constipation
- Results in tinnitus at a dosage of 30 mg/day (subjects with tinnitus; oral, 30 mg/day): Excellent results
- Tinnitus change noticed where MML was not possible to measure (subjects with tinnitus; subject 3, intermittent tinnitus): change on intensity and less episodes
- Progression of Minimum Masking Levels (MML) during the tests (subjects with tinnitus; subjects 4, 8, 9, 10 and 11, FIGS. 2-6): progressive reduction
- Effect on tinnitus severity and tinnitus loudness (subjects with tinnitus; tested subjects): positive effect
- Tinnitus after treatment was weaned off (subjects with tinnitus; weaned off after 12 weeks): got worse in some patients

Source: patent US20120077883A1, “TREATMENT OF TINNITUS AND ASSOCIATED AUDITORY DYSFUNCTIONS” (priority 2009, published 2012)
